Assay results as given in ChEMBL document CHEMBL1130662, “Preparation of meta-amidino-N,N-disubstituted anilines as potent inhibitors of coagulation factor Xa” (Bioorg Med Chem Lett, 1998).

Legend:
Coagulation factor X [1] = target: T1, Coagulation factor X (Oryctolagus cuniculus, UniProt O19045); experiment: Inhibition of serine protease factor Xa enzyme.
T1 sequence (O19045 whole entry): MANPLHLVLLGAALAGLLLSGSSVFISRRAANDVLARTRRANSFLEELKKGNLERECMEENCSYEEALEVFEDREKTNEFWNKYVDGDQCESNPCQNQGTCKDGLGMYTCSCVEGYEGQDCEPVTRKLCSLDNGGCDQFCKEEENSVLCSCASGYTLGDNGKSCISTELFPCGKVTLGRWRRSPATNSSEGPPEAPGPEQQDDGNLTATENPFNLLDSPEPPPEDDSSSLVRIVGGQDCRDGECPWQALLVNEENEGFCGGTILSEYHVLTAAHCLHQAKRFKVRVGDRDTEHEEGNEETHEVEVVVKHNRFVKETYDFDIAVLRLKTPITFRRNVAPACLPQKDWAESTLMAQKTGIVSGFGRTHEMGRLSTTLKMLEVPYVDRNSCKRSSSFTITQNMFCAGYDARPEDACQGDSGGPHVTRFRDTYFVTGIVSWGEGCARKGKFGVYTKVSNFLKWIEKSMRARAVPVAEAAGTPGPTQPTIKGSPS

Prothrombin = Prothrombin (Homo sapiens, UniProt P00734); experiment: Inhibition of serine protease thrombin enzyme.
Trypsin = Trypsin (Homo sapiens, UniProt P07477+P07478+P35030); experiment: Inhibition of serine protease trypsin enzyme.; type: protein assay, Oryctolagus cuniculus
[2] = Compound was tested for the inhibition of serine protease complement factor I enzyme.; parameters: species or system Oryctolagus cuniculus
Coagulation factor VII = target: T2, Coagulation factor VII (Homo sapiens, UniProt P08709); experiment: Compound was tested for the inhibition of serine protease factor VIIa enzyme.; parameters: species or system Oryctolagus cuniculus
T2 sequence (P08709 whole entry): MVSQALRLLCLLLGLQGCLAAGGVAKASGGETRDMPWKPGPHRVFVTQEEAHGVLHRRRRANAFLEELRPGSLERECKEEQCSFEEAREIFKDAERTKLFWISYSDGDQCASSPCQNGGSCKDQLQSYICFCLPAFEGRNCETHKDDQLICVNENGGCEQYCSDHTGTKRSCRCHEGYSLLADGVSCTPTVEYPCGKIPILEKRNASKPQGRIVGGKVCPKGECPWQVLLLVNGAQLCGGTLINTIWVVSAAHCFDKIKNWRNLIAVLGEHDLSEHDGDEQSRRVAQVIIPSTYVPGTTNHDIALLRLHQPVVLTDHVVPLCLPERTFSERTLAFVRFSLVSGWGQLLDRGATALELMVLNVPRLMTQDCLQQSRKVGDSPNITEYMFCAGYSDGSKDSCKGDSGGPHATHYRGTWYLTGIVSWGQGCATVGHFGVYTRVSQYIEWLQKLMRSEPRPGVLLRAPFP

Plasminogen = Plasminogen (Homo sapiens, UniProt P00747); experiment: Compound was tested for the inhibition of serine protease plasmin enzyme.; parameters: species or system Oryctolagus cuniculus
[3] = target: Tissue-type plasminogen activator (Homo sapiens, UniProt P00750); experiment: Compound was tested for the inhibition of serine protease tissue plasminogen activator enzyme.; parameters: species or system Oryctolagus cuniculus
Coagulation factor X [4] = target: T1, Coagulation factor X; experiment: Compound was tested for the inhibition of serine protease factor Xa enzyme.

Chain of Plasminogen (P00747 97-580 limits assumed): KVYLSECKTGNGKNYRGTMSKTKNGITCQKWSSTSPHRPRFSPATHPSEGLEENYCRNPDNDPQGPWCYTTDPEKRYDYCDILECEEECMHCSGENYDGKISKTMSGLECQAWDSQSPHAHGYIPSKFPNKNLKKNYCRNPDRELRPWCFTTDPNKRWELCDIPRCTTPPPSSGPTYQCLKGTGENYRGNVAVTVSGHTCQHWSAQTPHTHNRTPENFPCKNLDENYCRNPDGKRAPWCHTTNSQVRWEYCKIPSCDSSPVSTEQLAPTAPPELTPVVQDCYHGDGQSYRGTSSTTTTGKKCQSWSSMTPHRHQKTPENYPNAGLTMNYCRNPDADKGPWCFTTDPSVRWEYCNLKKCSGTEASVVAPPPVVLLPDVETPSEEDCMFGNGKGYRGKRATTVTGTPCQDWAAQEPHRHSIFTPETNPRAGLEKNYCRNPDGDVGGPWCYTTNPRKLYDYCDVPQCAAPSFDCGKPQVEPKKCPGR
Chain of Plasminogen (P00747 581-810 limits assumed): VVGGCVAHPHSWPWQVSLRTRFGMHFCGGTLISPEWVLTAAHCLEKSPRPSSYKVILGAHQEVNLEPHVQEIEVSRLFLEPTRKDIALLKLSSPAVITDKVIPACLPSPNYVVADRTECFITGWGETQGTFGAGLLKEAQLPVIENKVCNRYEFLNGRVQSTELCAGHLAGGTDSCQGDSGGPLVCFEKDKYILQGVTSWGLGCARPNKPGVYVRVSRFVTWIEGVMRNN
Chain of Tissue-type plasminogen activator (P00750 whole entry): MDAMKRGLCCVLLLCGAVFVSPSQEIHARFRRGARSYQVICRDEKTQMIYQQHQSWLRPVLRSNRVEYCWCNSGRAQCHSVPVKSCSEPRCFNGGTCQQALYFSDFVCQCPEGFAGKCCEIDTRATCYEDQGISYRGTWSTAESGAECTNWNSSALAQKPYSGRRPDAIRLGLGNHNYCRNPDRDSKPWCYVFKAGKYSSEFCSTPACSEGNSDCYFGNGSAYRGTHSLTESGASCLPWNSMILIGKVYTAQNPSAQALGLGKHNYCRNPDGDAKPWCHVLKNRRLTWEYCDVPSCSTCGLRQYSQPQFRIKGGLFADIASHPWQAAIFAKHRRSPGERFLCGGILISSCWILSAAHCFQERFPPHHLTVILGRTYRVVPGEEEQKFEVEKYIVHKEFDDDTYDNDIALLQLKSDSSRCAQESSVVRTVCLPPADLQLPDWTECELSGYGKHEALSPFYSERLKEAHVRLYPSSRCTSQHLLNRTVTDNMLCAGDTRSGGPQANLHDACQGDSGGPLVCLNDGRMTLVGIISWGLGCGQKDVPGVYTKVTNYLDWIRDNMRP

Question: Which Ki (Coagulation factor X [1]) does the source give for `COC(=O)CC(CCc1ccc(C(=N)N)cc1)c1cccc(C(=N)N)c1` (stereo not given) here?
Answer: Its Ki is 34 nM.

Question: Which Ki (Prothrombin) does the source give for `N=C(N)c1cccc(N(CCCc2ccc(-c3ccccc3S(N)(=O)=O)cc2)CCOc2ccccc2)c1` here?
Answer: The Ki was 300 nM.

Question: And the Ki (Coagulation factor X [1])?
Answer: Its Ki is 16 nM.

Question: What does the source list for `CC(=O)CN(CCCc1ccc(-c2ccccc2S(N)(=O)=O)cc1)c1cccc(C(=N)N)c1.O=C(O)C(F)(F)F`?
Answer: Ki (Trypsin): 360 nM; Ki (Prothrombin): 900 nM; Ki (Coagulation factor X [1]): 16 nM

Question: Which results are given for `CC(C)OC(=O)CN(CCOc1ccc(-c2ccccc2S(N)(=O)=O)cc1)c1cccc(C(=N)N)c1.O=C(O)C(F)(F)F`?
Answer: Ki (Trypsin): 52 nM; Ki (Prothrombin): 300 nM; Ki (Coagulation factor X [1]): 2.1 nM

Question: What does the source list for `COC(=O)CN(CCc1ccc(-c2ccccc2S(N)(=O)=O)cc1)c1cccc(C(=N)N)c1.O=C(O)C(F)(F)F`?
Answer: Ki (Trypsin): 56 nM; Ki (Prothrombin): 400 nM; Ki (Coagulation factor X [1]): 10 nM

Question: With `COC(=O)CN(CCOc1ccc(-c2ccccc2S(N)(=O)=O)cc1)c1cccc(C(=N)N)c1.O=C(O)C(F)(F)F` as the compound, how does the Ki (Trypsin) read?
Answer: Its Ki is 19 nM.

Question: And the Ki (Prothrombin)?
Answer: The Ki was 200 nM.

Question: What about the Ki (Coagulation factor X [1]) of the same compound?
Answer: Its Ki is 0.53 nM.

Question: With `CC(C)OC(=O)CN(CCCc1ccc(-c2ccccc2S(N)(=O)=O)cc1)c1cccc(C(=N)N)c1.O=C(O)C(F)(F)F` as the compound, how does the Ki (Trypsin) read?
Answer: The Ki was 74 nM.

Question: And the Ki (Prothrombin)?
Answer: The Ki was 500 nM.

Question: What about the Ki (Coagulation factor X [1]) of the same compound?
Answer: Its Ki is 7.5 nM.

Question: What does the source list for `N=C(N)c1cccc(N(CCCc2ccc(-c3ccccc3S(N)(=O)=O)cc2)CC(N)=O)c1.O=C(O)C(F)(F)F`?
Answer: Ki (Trypsin): 820 nM; Ki (Prothrombin): 3500 nM; Ki (Coagulation factor X [1]): 19 nM

Question: For `COC(=O)CN(c1cccc(C(=N)N)c1)S(=O)(=O)CCc1ccc(-c2ccccc2S(N)(=O)=O)cc1.O=C(O)C(F)(F)F`, which Ki (Trypsin) is on record?
Answer: The Ki was 180 nM.

Question: What about the Ki (Prothrombin) of the same compound?
Answer: Its Ki is 9000 nM.

Question: And the Ki (Coagulation factor X [1])?
Answer: The Ki was 21 nM.

Question: With `N=C(N)c1cccc(N(CCO)CCCc2ccc(-c3ccccc3S(N)(=O)=O)cc2)c1.O=C(O)C(F)(F)F` as the compound, how does the Ki (Trypsin) read?
Answer: Its Ki is 710 nM.

Question: What about the Ki (Prothrombin) of the same compound?
Answer: The Ki was 1800 nM.

Question: And the Ki (Coagulation factor X [1])?
Answer: The Ki was 17 nM.

Question: Which results are given for `N=C(N)c1cccc(NCCCc2ccc(-c3ccccc3S(N)(=O)=O)cc2)c1.O=C(O)C(F)(F)F`?
Answer: Ki (Trypsin): 850 nM; Ki (Prothrombin): 6100 nM; Ki (Coagulation factor X [1]): 83 nM

Question: With `COC(=O)CN(CCCc1ccc(-c2ccccc2S(N)(=O)=O)cc1)c1cccc(C(=N)N)c1.O=C(O)C(F)(F)F` as the compound, how does the IC50 [2] read?
Answer: Its IC50 is 10 µM.

Question: What about the Ki (Coagulation factor VII) of the same compound?
Answer: The Ki was 4.2 µM.

Question: What about the Ki (Trypsin) of the same compound?
Answer: The Ki was 39 nM.

Question: And the Ki (Plasminogen)?
Answer: The Ki was 300 nM.

Question: What about the Ki [3] of the same compound?
Answer: The Ki was 33 µM.

Question: What about the Ki (Prothrombin) of the same compound?
Answer: Its Ki is 200 nM.

Question: And the Ki (Coagulation factor X [1])?
Answer: Its Ki is 1.3 nM.

Question: With `COC(=O)CC1(C(=O)Nc2ccc(C(=N)N)cc2)CC(c2cccc(C(=N)N)c2)=NO1` (stereo not given) as the compound, how does the Ki (Coagulation factor X [1]) read?
Answer: The Ki was 94 nM.

Question: Which Ki (Trypsin) does the source give for `COC(=O)CN(CCCOc1ccc(-c2ccccc2S(N)(=O)=O)cc1)c1cccc(C(=N)N)c1.O=C(O)C(F)(F)F` here?
Answer: Its Ki is 77 nM.

Question: What about the Ki (Prothrombin) of the same compound?
Answer: Its Ki is 600 nM.

Question: And the Ki (Coagulation factor X [1])?
Answer: The Ki was 6.7 nM.

Question: For `CC(=N)N1CC[C@H](Oc2ccc([C@H](Cc3ccc4ccc(C(=N)N)cc4c3)C(=O)O)cc2)C1` [DX-9065A], which IC50 (Coagulation factor X [4]) is on record?
Answer: Its IC50 is 41 nM.

Question: Which Ki (Trypsin) does the source give for `COCCN(CCCc1ccc(-c2ccccc2S(N)(=O)=O)cc1)c1cccc(C(=N)N)c1.O=C(O)C(F)(F)F` here?
Answer: The Ki was 330 nM.

Question: What about the Ki (Prothrombin) of the same compound?
Answer: The Ki was 900 nM.

Question: And the Ki (Coagulation factor X [1])?
Answer: The Ki was 11 nM.

Question: For `COC(=O)CC1(C(=O)Nc2ccc(-c3ccccc3S(N)(=O)=O)cc2)CC(c2cccc(C(=N)N)c2)=NO1` (stereo not given), which Ki (Coagulation factor X [1]) is on record?
Answer: Its Ki is 6.3 nM.

Question: With `N=C(N)c1cccc(NS(=O)(=O)CCc2ccc(-c3ccccc3S(N)(=O)=O)cc2)c1.O=C(O)C(F)(F)F` as the compound, how does the Ki (Trypsin) read?
Answer: The Ki was 1400 nM.

Question: And the Ki (Prothrombin)?
Answer: The Ki was 17000 nM.

Question: What about the Ki (Coagulation factor X [1]) of the same compound?
Answer: The Ki was 51 nM.

Question: With `N=C(N)c1cccc(N(CCCc2ccc(-c3ccccc3S(N)(=O)=O)cc2)CC(=O)O)c1.O=C(O)C(F)(F)F` as the compound, how does the Ki (Trypsin) read?
Answer: Its Ki is 470 nM.

Question: What about the Ki (Prothrombin) of the same compound?
Answer: The Ki was 1400 nM.

Question: And the Ki (Coagulation factor X [1])?
Answer: The Ki was 12 nM.

Question: With `CC(C)OC(=O)CN(c1cccc(C(=N)N)c1)S(=O)(=O)CCc1ccc(-c2ccccc2S(N)(=O)=O)cc1.O=C(O)C(F)(F)F` as the compound, how does the Ki (Trypsin) read?
Answer: Its Ki is 220 nM.

Question: And the Ki (Prothrombin)?
Answer: Its Ki is 15000 nM.

Question: What about the Ki (Coagulation factor X [1]) of the same compound?
Answer: The Ki was 37 nM.
